Assay results taken from patent US6706663B2, “Herbicidal 3-heterocyclic substituted benzisothiazole and benzisoxazole compounds” (Wyeth, priority 2000, dated 2004).

What was measured:
[1] = test system: IPOHE (Ipomoea hederacea); assay: Postemergence herbicidal evaluation; assay type: in vivo, (L.) Jacq.; settings: postemergence
Method in brief: (§1)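 Seedlings grown about two weeks in flats, sprayed, then kept under standard greenhouse care. Rated visually 4–5 weeks after treatment on a 0–9 scale (stand, vigour, malformation, size, chlorosis, overall appearance) relative to untreated control; repeat tests averaged.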

[2] = test system: ECHCG (Echinochloa crus-galli); assay: Postemergence herbicidal evaluation; assay type: in vivo, (L.) Beau; settings: postemergence
Method in brief: as §1

[3] = test system: SETVI (Setaria viridis); assay: Postemergence herbicidal evaluation; assay type: in vivo, (L.) Beau; settings: postemergence
Method in brief: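 Ratings use a 0-9 visual scale covering stand, vigor, malformation, size, chlorosis and appearance versus a control, scored 4-5 weeks post-spray. Roughly two-week-old seedlings received about 0.0040-1.000 kg/ha active, applied in 50/50 acetone/water with 0.5% TWEEN 20. Multiple tests per compound were averaged.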

[4] = test system: GLXMAW (Soybean, Williams); assay: Postemergence herbicidal evaluation; assay type: in vivo, Glycine max, (L.) Merr. cv Williams; settings: postemergence, rate 0.0320 kg/ha
Method in brief: as §1

[5] = test system: ORYSAT (Rice, Tebonnet); assay: Postemergence herbicidal evaluation; assay type: in vivo, Oryza sativa, (L.) Tebonnet; settings: postemergence, rate 0.0320 kg/ha
Method in brief: as §1

[6] = test system: TRZAWR (Wheat, Winter, cv Riband); assay: Postemergence herbicidal evaluation; assay type: in vivo, Triticum aestivum; settings: postemergence, rate 0.0320 kg/ha
Method in brief: as §1

[7] = test system: ZEAMX (Corn, Field); assay: Postemergence herbicidal evaluation; assay type: in vivo, Zea mays, L.; settings: postemergence
Method in brief: as §1

[8] = test system: ABUTH (Abutilon theophrasti); assay: Preemergence herbicidal evaluation; assay type: in vivo, Medic.; settings: rated 4-5 weeks after treatment
[9] = test system: AMBEL (Ambrosia artemisifolia); assay: Preemergence herbicidal evaluation; assay type: in vivo, L.; settings: rated 4-5 weeks after treatment
Method in brief: (§2)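 Scores (0–9) reflect visual comparison with control plants for stand, vigor, malformation, size and chlorosis. Seeds in potting soil received a post-planting spray of compound in aqueous acetone and grew in a greenhouse until assessment 4–5 weeks later.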

[10] = test system: CASOB (Cassia obtusifolia); assay: Preemergence herbicidal evaluation; assay type: in vivo, L.; settings: rated 4-5 weeks after treatment
Method in brief: as §2

[11] = test system: CHEAL (Chenopodium album); assay: Preemergence herbicidal evaluation; assay type: in vivo, L.; settings: rated 4-5 weeks after treatment
Method in brief: as §2

[12] = test system: GALAP (Galium aparine); assay: Preemergence herbicidal evaluation; assay type: in vivo; settings: rated 4-5 weeks after treatment
Method in brief: as §2

[13] = test system: ECHCG (Echinochloa crus-galli); assay: Preemergence herbicidal evaluation; assay type: in vivo, (L.) Beau; settings: rated 4-5 weeks after treatment
Method in brief: as §2

[14] = test system: SETVI (Setaria viridis); assay: Preemergence herbicidal evaluation; assay type: in vivo, (L.) Beau; settings: rated 4-5 weeks after treatment
Method in brief: as §2

[15] = test system: ORYSAT (Rice, Tebonnet); assay: Preemergence herbicidal evaluation; assay type: in vivo, Oryza sativa, (L.) Tebonnet; settings: rated 4-5 weeks after treatment
[16] = test system: TRZAWR (Wheat, Winter, cv Riband); assay: Preemergence herbicidal evaluation; assay type: in vivo, Triticum aestivum; settings: rated 4-5 weeks after treatment
Method in brief: as §2

[17] = test system: ECHORC (Echinochloa oryzoides); assay: Flooded paddy, preemergence weed control; assay type: in vivo, Echinochloa oryzoides (Ard.) Fritsch.; settings: rated 3-4 weeks after treatment, 0-9 rating scale
Method in brief: (§3)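 Scoring used a 0-9 visual scale relative to control. Before that, seeds or propagules were planted shallowly in silt loam and flooded to 1.5–3 cm, a depth maintained throughout, with greenhouse care during the test.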

[18] = test system: CYPSE (Cyperus serotinus); assay: Flooded paddy, preemergence weed control; assay type: in vivo, Rottb.; settings: rated 3-4 weeks after treatment, 0-9 rating scale
Method in brief: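 Seeds or propagules were planted 0.5 cm deep in silt loam and flooded to 1.5–3 cm. Compounds in 50/50 v/v aqueous/acetone were pipetted into the flood water at about 0.0080 to 0.1250 kg/ha. After 3–4 weeks in the greenhouse, effect was rated visually on a 0–9 scale versus untreated control.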

[19] = test system: MOOVA (Monochoria vaginalis); assay: Flooded paddy, preemergence weed control; assay type: in vivo, Presl.; settings: rated 3-4 weeks after treatment, 0-9 rating scale
Method in brief: as §3

## Cn1c(C(F)(F)F)cc(=O)n(-c2cc3c(C4OCCO4)nsc3cc2F)c1=O [Compound 61, 3-[3-(1,3-dioxolan-2-yl)-6-fluoro-1,2-benzisothiazol-5-yl]-1-methyl-6-(trifluoromethyl)uracil]
[1]; rate 0.0320 kg/ha
  IPOHE herbicidal rating: 9.0
[1]; rate 0.0620 kg/ha
  IPOHE herbicidal rating: 9.0
[2]; rate 0.0320 kg/ha
  ECHCG herbicidal rating: 5.0
[2]; rate 0.0620 kg/ha
  ECHCG herbicidal rating: 3.0
[3]; rate 0.0320 kg/ha
  SETVI herbicidal rating: 7.5
[3]; rate 0.0620 kg/ha
  SETVI herbicidal rating: 8.0
[4]
  GLXMAW herbicidal rating: 9.0
[5]
  ORYSAT herbicidal rating: 5.5
[6]
  TRZAWR herbicidal rating: 5.5
[7]; rate 0.0320 kg/ha
  ZEAMX herbicidal rating: 5.5
[7]; rate 0.0620 kg/ha
  ZEAMX herbicidal rating: 5.5
[8]; Rate 0.0002 kg/ha
  Preemergence herbicidal rating ABUTH: 0.0
[8]; Rate 0.0160 kg/ha
  Preemergence herbicidal rating ABUTH: 9.0
[8]; Rate 0.0320 kg/ha
  Preemergence herbicidal rating ABUTH: 9.0
[9]; Rate 0.0002 kg/ha
  Preemergence herbicidal rating AMBEL: 0.0
[9]; Rate 0.0160 kg/ha
  Preemergence herbicidal rating AMBEL: 9.0
[9]; Rate 0.0320 kg/ha
  Preemergence herbicidal rating AMBEL: 9.0
[10]; Rate 0.0002 kg/ha
  Preemergence herbicidal rating CASOB: 0.0
[10]; Rate 0.0160 kg/ha
  Preemergence herbicidal rating CASOB: 7.3
[10]; Rate 0.0320 kg/ha
  Preemergence herbicidal rating CASOB: 7.0
[11]; Rate 0.0002 kg/ha
  Preemergence herbicidal rating CHEAL: 2.0
[11]; Rate 0.0160 kg/ha
  Preemergence herbicidal rating CHEAL: 9.0
[11]; Rate 0.0320 kg/ha
  Preemergence herbicidal rating CHEAL: 9.0
[12]; Rate 0.0002 kg/ha
  Preemergence herbicidal rating GALAP: 0.0
[12]; Rate 0.0160 kg/ha
  Preemergence herbicidal rating GALAP: 8.5
[12]; Rate 0.0320 kg/ha
  Preemergence herbicidal rating GALAP: 9.0
[13]; Rate 0.0002 kg/ha
  Preemergence herbicidal rating ECHCG: 0.0
[13]; Rate 0.0160 kg/ha
  Preemergence herbicidal rating ECHCG: 9.0
[13]; Rate 0.0320 kg/ha
  Preemergence herbicidal rating ECHCG: 9.0
[14]; Rate 0.0002 kg/ha
  Preemergence herbicidal rating SETVI: 0.0
[14]; Rate 0.0160 kg/ha
  Preemergence herbicidal rating SETVI: 9.0
[14]; Rate 0.0320 kg/ha
  Preemergence herbicidal rating SETVI: 9.0
[15]; Rate 0.0002 kg/ha
  Preemergence herbicidal rating ORYSAT: 0.0
[15]; Rate 0.0160 kg/ha
  Preemergence herbicidal rating ORYSAT: 8.7
[15]; Rate 0.0320 kg/ha
  Preemergence herbicidal rating ORYSAT: 9.0
[16]; Rate 0.0002 kg/ha
  Preemergence herbicidal rating TRZAWR: 0.0
[16]; Rate 0.0160 kg/ha
  Preemergence herbicidal rating TRZAWR: 8.5
[16]; Rate 0.0320 kg/ha
  Preemergence herbicidal rating TRZAWR: 9.0
[17]; rate 0.0080 kg/ha
  herbicidal rating, ECHORC: 8.7
[17]; rate 0.0320 kg/ha
  herbicidal rating, ECHORC: 9.0
[17]; rate 0.1250 kg/ha
  herbicidal rating, ECHORC: 9.0
[18]; rate 0.0320 kg/ha
  herbicidal rating, CYPSE: 9.0
[18]; rate 0.1250 kg/ha
  herbicidal rating, CYPSE: 9.0
[19]; rate 0.0080 kg/ha
  herbicidal rating, MOOVA: 8.5
[19]; rate 0.0320 kg/ha
  herbicidal rating, MOOVA: 9.0
[19]; rate 0.1250 kg/ha
  herbicidal rating, MOOVA: 9.0
